Assay results as given in publication PMC6109843, “Novel Quinazolinone Inhibitors of ALK2 Flip between Alternate Binding Modes: Structure–Activity Relationship, Structural Characterization, Kinase Profiling, and Cellular Proof of Concept” (Journal of Medicinal Chemistry, 2018).

Legend:
Assay in all cases: DiscoverX scanEDGE kinase panel
Type in all cases: binding
Conditions in all cases: Cmpd Conc 1000 nM, read-out: % Ctrl
PIK3C2B = molecular target: T1, PIK3C2B (Homo sapiens, UniProt O00750)
T1 construct: purchased DiscoverX (DiscoveRx) KINOMEscan scanEDGE / KdELECT
Text: (§1) We hypothesized that inhibitors of the normal and flipped modes would display distinct selectivity profiles.
(§2) 1. 16 and 21 kinome selectivity data
(§3) (P – phosphorylated; nP – nonphosphorylated; % Ctrl values show the % of DNAEtagged
(§4) kinase which was not displaced from a solid supported ligand by a test compound relative to
(§5) untreated control, quantified by qPCR).
(§6) Please note: ALKs 1, 2, 3, 4, 5 and 6 are listed by their gene symbols: ACVRL1 (ALK1), ACVR1
(§7) (ALK2), BMPR1A (ALK3), ACVR1B (ALK4), TGFBR1 (ALK5) and BMPR1B (ALK6)
(§8) Cmpd DiscoverX Gene Symbol Entrez Gene Symbol % Ctrl Cmpd Conc (nM)

IKKEbeta = molecular target: T2, IKKEbeta (Homo sapiens, UniProt O14920)
T2 construct: purchased DiscoverX (DiscoveRx) KINOMEscan scanEDGE / KdELECT
Text: as §1, §2, §3, §4, §5, §6, §7, §8

IGF1R = molecular target: T3, IGF1R (Homo sapiens, UniProt P08069)
T3 construct: purchased DiscoverX (DiscoveRx) KINOMEscan scanEDGE / KdELECT
Text: as §1, §2, §3, §4, §5, §6, §7, §8

AKT1 = molecular target: T4, AKT1 (Homo sapiens, UniProt P31749)
T4 construct: purchased DiscoverX (DiscoveRx) KINOMEscan scanEDGE / KdELECT
Text: as §1, §2, §3, §4, §5, §6, §7, §8

SNARK = molecular target: T5, SNARK (Homo sapiens, UniProt Q9H093)
T5 construct: purchased DiscoverX (DiscoveRx) KINOMEscan scanEDGE / KdELECT
Text: as §1, §2, §3, §4, §5, §6, §7, §8

JNK2 = molecular target: T6, JNK2 (Homo sapiens, UniProt P45984)
T6 construct: purchased DiscoverX (DiscoveRx) KINOMEscan scanEDGE / KdELECT
Text: as §1, §2, §3, §4, §5, §6, §7, §8

INSR = molecular target: T7, INSR (Homo sapiens, UniProt P06213)
T7 construct: purchased DiscoverX (DiscoveRx) KINOMEscan scanEDGE / KdELECT
Text: as §1, §2, §3, §4, §5, §6, §7, §8

PIK3CA = molecular target: T8, PIK3CA (Homo sapiens, UniProt P42336)
T8 construct: purchased DiscoverX (DiscoveRx) KINOMEscan scanEDGE / KdELECT
Text: as §1, §2, §3, §4, §5, §6, §7, §8

JNK1 = molecular target: T9, JNK1 (Homo sapiens, UniProt P45983)
T9 construct: purchased DiscoverX (DiscoveRx) KINOMEscan scanEDGE / KdELECT
Text: as §1, §2, §3, §4, §5, §6, §7, §8

SRC = molecular target: T10, SRC (Homo sapiens, UniProt P12931)
T10 construct: purchased DiscoverX (DiscoveRx) KINOMEscan scanEDGE / KdELECT
Text: as §1, §2, §3, §4, §5, §6, §7, §8

PLK4 = molecular target: T11, PLK4 (Homo sapiens, UniProt O00444)
T11 construct: purchased DiscoverX (DiscoveRx) KINOMEscan scanEDGE / KdELECT
Text: as §1, §2, §3, §4, §5, §6, §7, §8

PDPK1 = molecular target: T12, PDPK1 (Homo sapiens, UniProt O15530)
T12 construct: purchased DiscoverX (DiscoveRx) KINOMEscan scanEDGE / KdELECT
Text: as §1, §2, §3, §4, §5, §6, §7, §8

LKB1 = molecular target: T13, LKB1 (Homo sapiens, UniProt Q15831)
T13 construct: purchased DiscoverX (DiscoveRx) KINOMEscan scanEDGE / KdELECT
Text: as §1, §2, §3, §4, §5, §6, §7, §8

PAK2 = molecular target: T14, PAK2 (Homo sapiens, UniProt Q13177)
T14 construct: purchased DiscoverX (DiscoveRx) KINOMEscan scanEDGE / KdELECT
Text: as §1, §2, §3, §4, §5, §6, §7, §8

JNK3 = molecular target: T15, JNK3 (Homo sapiens, UniProt P53779)
T15 construct: purchased DiscoverX (DiscoveRx) KINOMEscan scanEDGE / KdELECT
Text: as §1, §2, §3, §4, §5, §6, §7, §8

ALK = molecular target: T16, ALK (Homo sapiens, UniProt Q9UM73)
T16 construct: purchased DiscoverX (DiscoveRx) KINOMEscan scanEDGE / KdELECT
Text: as §1, §2, §3, §4, §5, §6, §7, §8

MET = molecular target: T17, MET (Homo sapiens, UniProt P08581)
T17 construct: purchased DiscoverX (DiscoveRx) KINOMEscan scanEDGE / KdELECT
Text: as §1, §2, §3, §4, §5, §6, §7, §8

BRAF = molecular target: T18, BRAF (Homo sapiens, UniProt P15056)
T18 construct: purchased DiscoverX (DiscoveRx) KINOMEscan scanEDGE / KdELECT
Text: as §1, §2, §3, §4, §5, §6, §7, §8

LCK = molecular target: T19, LCK (Homo sapiens, UniProt P06239)
T19 construct: purchased DiscoverX (DiscoveRx) KINOMEscan scanEDGE / KdELECT
Text: as §1, §2, §3, §4, §5, §6, §7, §8

FYN = molecular target: T20, FYN (Homo sapiens, UniProt P06241)
T20 construct: purchased DiscoverX (DiscoveRx) KINOMEscan scanEDGE / KdELECT
Text: as §1, §2, §3, §4, §5, §6, §7, §8

GSK3B = molecular target: T21, GSK3B (Homo sapiens, UniProt P49841)
T21 construct: purchased DiscoverX (DiscoveRx) KINOMEscan scanEDGE / KdELECT
Text: as §1, §2, §3, §4, §5, §6, §7, §8

RIPK2 = molecular target: T22, RIPK2 (Homo sapiens, UniProt O43353)
T22 construct: purchased DiscoverX (DiscoveRx) KINOMEscan scanEDGE / KdELECT
Text: as §1, §2, §3, §4, §5, §6, §7, §8

SIK2 = molecular target: T23, SIK2 (Homo sapiens, UniProt Q9H0K1)
T23 construct: purchased DiscoverX (DiscoveRx) KINOMEscan scanEDGE / KdELECT
Text: as §1, §2, §3, §4, §5, §6, §7, §8

BMPR1B (ALK6) = molecular target: T24, BMPR1B (ALK6) (Homo sapiens, UniProt O00238)
T24 construct: purchased DiscoverX (DiscoveRx) KINOMEscan scanEDGE / KdELECT
Text: as §1, §2, §3, §4, §5, §6, §7, §8

PCTK1 = molecular target: T25, PCTK1 (Homo sapiens, UniProt Q00536)
T25 construct: purchased DiscoverX (DiscoveRx) KINOMEscan scanEDGE / KdELECT
Text: as §1, §2, §3, §4, §5, §6, §7, §8

TYK2(JH1domain) = molecular target: T26, TYK2(JH1domain) (Homo sapiens, UniProt P29597)
T26 construct: TYK2(JH1domain); purchased DiscoverX (DiscoveRx) KINOMEscan scanEDGE / KdELECT
Text: as §1, §2, §3, §4, §5, §6, §7, §8

RET = molecular target: T27, RET (Homo sapiens, UniProt P07949)
T27 construct: purchased DiscoverX (DiscoveRx) KINOMEscan scanEDGE / KdELECT
Text: as §1, §2, §3, §4, §5, §6, §7, §8

[1] = molecular target: T28, RSK2(Kin.Dom.1ENEterminal) (Homo sapiens, UniProt P51812)
T28 construct: RSK2(Kin.Dom.1ENEterminal); purchased DiscoverX (DiscoveRx) KINOMEscan scanEDGE / KdELECT
Text: as §1, §2, §3, §4, §5, §6, §7, §8

ULK2 = molecular target: T29, ULK2 (Homo sapiens, UniProt Q8IYT8)
T29 construct: purchased DiscoverX (DiscoveRx) KINOMEscan scanEDGE / KdELECT
Text: as §1, §2, §3, §4, §5, §6, §7, §8

PIM2 = molecular target: T30, PIM2 (Homo sapiens, UniProt Q9P1W9)
T30 construct: purchased DiscoverX (DiscoveRx) KINOMEscan scanEDGE / KdELECT
Text: as §1, §2, §3, §4, §5, §6, §7, §8

BRAF(V600E) = molecular target: T31, BRAF(V600E) (Homo sapiens, UniProt P15056, V600E)
T31 construct: purchased DiscoverX (DiscoveRx) KINOMEscan scanEDGE / KdELECT
Text: as §1, §2, §3, §4, §5, §6, §7, §8

TGFBR1 (ALK5) = molecular target: T32, TGFBR1 (ALK5) (Homo sapiens, UniProt P36897)
T32 construct: purchased DiscoverX (DiscoveRx) KINOMEscan scanEDGE / KdELECT
Text: as §1, §2, §3, §4, §5, §6, §7, §8

BTK = molecular target: T33, BTK (Homo sapiens, UniProt Q06187)
T33 construct: purchased DiscoverX (DiscoveRx) KINOMEscan scanEDGE / KdELECT
Text: as §1, §2, §3, §4, §5, §6, §7, §8

ABL1(T315I)EP = molecular target: T34, ABL1(T315I)EP (Homo sapiens, UniProt P00519, T315I)
T34 construct: purchased DiscoverX (DiscoveRx) KINOMEscan scanEDGE / KdELECT
Text: as §1, §2, §3, §4, §5, §6, §7, §8

MINK = molecular target: T35, MINK (Homo sapiens, UniProt Q8N4C8)
T35 construct: purchased DiscoverX (DiscoveRx) KINOMEscan scanEDGE / KdELECT
Text: as §1, §2, §3, §4, §5, §6, §7, §8

AURKB = molecular target: T36, AURKB (Homo sapiens, UniProt Q96GD4)
T36 construct: purchased DiscoverX (DiscoveRx) KINOMEscan scanEDGE / KdELECT
Text: as §1, §2, §3, §4, §5, §6, §7, §8

MEK1 = molecular target: T37, MEK1 (Homo sapiens, UniProt Q02750)
T37 construct: purchased DiscoverX (DiscoveRx) KINOMEscan scanEDGE / KdELECT
Text: as §1, §2, §3, §4, §5, §6, §7, §8

KIT(D816H) = molecular target: T38, KIT(D816H) (Homo sapiens, UniProt P10721, D816H)
T38 construct: purchased DiscoverX (DiscoveRx) KINOMEscan scanEDGE / KdELECT
Text: as §1, §2, §3, §4, §5, §6, §7, §8

T4 sequence (P31749 whole entry): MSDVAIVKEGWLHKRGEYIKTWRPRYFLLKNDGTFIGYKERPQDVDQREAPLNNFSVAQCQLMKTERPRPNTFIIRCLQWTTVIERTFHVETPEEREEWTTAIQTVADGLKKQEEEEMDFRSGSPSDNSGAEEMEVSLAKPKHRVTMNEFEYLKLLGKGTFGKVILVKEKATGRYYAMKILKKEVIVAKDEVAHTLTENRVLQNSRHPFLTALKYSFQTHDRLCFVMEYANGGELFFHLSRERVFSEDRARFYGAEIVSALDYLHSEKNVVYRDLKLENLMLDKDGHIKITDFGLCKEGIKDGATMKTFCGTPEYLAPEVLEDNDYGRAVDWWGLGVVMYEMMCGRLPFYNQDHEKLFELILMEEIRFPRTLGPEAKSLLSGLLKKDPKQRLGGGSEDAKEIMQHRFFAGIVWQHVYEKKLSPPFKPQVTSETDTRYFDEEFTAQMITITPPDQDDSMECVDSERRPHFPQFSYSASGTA
T22 sequence (O43353 whole entry): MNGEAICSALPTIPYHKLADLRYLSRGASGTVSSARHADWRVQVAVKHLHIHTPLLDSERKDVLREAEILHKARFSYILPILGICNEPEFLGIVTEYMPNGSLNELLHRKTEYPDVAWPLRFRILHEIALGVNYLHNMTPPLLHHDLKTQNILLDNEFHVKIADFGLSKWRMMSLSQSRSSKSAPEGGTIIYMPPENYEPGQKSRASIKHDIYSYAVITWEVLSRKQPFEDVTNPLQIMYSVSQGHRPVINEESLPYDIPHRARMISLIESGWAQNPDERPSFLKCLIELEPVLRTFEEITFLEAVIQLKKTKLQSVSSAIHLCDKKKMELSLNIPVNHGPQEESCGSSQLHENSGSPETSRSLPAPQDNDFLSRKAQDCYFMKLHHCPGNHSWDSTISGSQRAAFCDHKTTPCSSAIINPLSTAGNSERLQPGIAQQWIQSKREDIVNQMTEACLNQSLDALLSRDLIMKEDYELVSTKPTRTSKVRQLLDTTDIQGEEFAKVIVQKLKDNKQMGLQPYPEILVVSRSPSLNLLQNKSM
T1 sequence (O00750 whole entry): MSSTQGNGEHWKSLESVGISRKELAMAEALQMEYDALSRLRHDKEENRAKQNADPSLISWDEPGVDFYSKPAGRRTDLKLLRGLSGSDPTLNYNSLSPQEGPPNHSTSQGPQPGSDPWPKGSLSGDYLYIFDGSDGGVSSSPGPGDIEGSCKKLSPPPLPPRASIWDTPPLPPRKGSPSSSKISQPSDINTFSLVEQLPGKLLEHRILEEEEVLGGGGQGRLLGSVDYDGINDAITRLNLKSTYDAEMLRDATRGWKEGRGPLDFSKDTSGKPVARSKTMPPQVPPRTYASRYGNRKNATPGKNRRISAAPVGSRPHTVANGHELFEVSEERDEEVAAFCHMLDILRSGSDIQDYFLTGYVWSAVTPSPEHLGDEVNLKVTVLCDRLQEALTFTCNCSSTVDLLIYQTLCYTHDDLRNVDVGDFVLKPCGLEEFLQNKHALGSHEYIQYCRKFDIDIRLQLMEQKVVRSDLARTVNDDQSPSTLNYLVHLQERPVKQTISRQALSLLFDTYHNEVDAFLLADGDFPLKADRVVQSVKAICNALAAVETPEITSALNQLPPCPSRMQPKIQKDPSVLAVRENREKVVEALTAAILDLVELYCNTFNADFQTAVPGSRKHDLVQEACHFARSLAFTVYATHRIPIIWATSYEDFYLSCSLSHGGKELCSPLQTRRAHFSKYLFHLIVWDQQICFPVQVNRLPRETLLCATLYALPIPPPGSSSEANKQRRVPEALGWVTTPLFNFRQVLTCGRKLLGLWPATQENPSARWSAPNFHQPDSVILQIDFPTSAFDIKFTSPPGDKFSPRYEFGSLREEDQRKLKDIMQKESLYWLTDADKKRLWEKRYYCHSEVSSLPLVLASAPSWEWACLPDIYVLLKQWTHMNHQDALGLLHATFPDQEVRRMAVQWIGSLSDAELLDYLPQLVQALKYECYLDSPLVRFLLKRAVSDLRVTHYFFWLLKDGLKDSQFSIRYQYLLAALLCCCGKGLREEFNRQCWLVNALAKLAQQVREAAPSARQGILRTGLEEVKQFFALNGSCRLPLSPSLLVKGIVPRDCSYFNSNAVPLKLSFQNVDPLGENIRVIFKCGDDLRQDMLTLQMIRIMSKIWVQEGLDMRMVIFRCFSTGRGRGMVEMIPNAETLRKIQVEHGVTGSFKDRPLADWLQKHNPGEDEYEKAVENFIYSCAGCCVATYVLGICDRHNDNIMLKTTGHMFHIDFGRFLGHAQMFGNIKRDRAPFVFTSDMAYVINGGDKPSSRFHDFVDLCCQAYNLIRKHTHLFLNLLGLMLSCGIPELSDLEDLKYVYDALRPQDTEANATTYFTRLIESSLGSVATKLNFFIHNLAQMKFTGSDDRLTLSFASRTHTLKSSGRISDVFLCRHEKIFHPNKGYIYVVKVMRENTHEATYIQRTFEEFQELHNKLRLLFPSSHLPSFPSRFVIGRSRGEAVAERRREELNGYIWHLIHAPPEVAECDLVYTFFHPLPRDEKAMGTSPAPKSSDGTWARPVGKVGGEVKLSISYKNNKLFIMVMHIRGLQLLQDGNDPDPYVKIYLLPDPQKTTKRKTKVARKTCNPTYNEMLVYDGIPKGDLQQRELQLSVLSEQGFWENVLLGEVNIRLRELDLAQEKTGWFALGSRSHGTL
T38 sequence (P10721 26-976 D816H): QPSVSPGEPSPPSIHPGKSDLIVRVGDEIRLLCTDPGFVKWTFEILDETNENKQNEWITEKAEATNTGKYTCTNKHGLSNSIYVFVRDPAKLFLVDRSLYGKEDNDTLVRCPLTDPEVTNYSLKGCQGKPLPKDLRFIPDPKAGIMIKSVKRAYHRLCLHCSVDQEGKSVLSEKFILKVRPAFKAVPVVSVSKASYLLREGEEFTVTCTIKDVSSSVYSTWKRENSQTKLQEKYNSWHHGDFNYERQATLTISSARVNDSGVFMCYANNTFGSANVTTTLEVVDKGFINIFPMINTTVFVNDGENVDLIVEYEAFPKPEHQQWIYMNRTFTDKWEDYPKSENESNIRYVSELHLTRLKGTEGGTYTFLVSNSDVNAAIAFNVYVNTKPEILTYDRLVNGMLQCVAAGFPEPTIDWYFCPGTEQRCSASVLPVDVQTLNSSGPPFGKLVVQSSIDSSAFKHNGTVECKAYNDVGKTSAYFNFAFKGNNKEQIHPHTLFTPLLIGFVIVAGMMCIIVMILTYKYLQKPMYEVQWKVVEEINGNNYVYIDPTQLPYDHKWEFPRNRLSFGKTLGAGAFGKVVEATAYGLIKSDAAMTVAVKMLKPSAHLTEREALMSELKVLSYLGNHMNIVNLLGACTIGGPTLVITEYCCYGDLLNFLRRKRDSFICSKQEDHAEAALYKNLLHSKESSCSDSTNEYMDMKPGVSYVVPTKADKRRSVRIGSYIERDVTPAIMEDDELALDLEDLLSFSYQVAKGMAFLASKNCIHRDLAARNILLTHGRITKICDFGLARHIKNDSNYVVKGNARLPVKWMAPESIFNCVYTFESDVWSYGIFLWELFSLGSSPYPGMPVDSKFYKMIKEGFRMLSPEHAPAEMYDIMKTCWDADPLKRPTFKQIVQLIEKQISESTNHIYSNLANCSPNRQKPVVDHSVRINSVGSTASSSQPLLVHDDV
T5 sequence (Q9H093 whole entry): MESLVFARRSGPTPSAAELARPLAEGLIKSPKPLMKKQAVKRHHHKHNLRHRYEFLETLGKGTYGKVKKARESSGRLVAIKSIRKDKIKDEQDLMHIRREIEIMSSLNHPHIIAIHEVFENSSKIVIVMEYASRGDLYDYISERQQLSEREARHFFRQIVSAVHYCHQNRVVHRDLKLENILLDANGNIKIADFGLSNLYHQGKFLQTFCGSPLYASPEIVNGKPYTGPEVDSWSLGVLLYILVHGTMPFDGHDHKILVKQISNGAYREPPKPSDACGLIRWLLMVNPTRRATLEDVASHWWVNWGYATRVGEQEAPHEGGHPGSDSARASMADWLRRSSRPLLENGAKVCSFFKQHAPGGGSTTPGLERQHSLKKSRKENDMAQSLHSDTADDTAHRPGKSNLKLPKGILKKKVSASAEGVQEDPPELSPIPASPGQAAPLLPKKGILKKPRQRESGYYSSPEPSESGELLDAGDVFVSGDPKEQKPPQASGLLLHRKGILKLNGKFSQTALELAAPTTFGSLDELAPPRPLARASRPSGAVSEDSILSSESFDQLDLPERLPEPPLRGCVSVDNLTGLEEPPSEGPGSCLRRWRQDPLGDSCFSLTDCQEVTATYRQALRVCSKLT
T20 sequence (P06241 whole entry): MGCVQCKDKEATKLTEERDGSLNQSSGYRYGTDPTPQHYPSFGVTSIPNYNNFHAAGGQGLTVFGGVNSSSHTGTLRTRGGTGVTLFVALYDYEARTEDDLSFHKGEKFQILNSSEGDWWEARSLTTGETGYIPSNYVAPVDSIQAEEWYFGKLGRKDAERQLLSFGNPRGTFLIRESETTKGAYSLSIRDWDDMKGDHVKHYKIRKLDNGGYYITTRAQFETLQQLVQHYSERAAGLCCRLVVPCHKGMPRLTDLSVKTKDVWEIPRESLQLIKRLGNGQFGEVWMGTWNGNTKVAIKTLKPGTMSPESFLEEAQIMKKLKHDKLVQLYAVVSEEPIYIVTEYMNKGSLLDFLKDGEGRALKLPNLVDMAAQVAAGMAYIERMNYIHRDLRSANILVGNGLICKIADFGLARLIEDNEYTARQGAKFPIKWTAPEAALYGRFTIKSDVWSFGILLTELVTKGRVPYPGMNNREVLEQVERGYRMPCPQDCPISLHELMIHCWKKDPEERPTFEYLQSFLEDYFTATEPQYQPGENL
T26 sequence (P29597 889-1187 limits assumed): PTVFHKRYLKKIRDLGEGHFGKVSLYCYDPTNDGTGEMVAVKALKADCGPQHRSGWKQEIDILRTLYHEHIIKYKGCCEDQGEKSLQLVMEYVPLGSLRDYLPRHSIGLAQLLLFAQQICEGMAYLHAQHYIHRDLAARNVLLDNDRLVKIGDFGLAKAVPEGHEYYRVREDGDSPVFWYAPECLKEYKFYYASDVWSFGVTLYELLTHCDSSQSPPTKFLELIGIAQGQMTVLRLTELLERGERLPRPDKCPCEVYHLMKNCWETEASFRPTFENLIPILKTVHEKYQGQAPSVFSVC

O=c1c2cc(-c3ccnc4ccccc34)ccc2ncn1-c1ccc(N2CCOCC2)cc1 [compound 16, 3-(4-Morpholinophenyl)-6-(quinolin-4-yl)quinazolin-4(3H)-one]
remaining binding at 1 µM (PIK3C2B): 100% | remaining binding at 1 µM (IKKEbeta): 84% | remaining binding at 1 µM (IGF1R): 100% | remaining binding at 1 µM (AKT1): 94% | remaining binding at 1 µM (SNARK): 100% | remaining binding at 1 µM (JNK2): 100% | remaining binding at 1 µM (INSR): 100% | remaining binding at 1 µM (PIK3CA): 100% | remaining binding at 1 µM (JNK1): 100% | remaining binding at 1 µM (SRC): 88% | remaining binding at 1 µM (PLK4): 100% | remaining binding at 1 µM (PDPK1): 84% | remaining binding at 1 µM (LKB1): 96% | remaining binding at 1 µM (PAK2): 54% | remaining binding at 1 µM (JNK3): 98% | remaining binding at 1 µM (ALK): 99% | remaining binding at 1 µM (MET): 80% | remaining binding at 1 µM (BRAF): 65% | remaining binding at 1 µM (LCK): 98% | remaining binding at 1 µM (FYN): 100% | remaining binding at 1 µM (GSK3B): 95% | remaining binding at 1 µM (RIPK2): 88% | remaining binding at 1 µM (SIK2): 96% | remaining binding at 1 µM (BMPR1B (ALK6)): 4.1% | remaining binding at 1 µM (PCTK1): 87% | remaining binding at 1 µM (TYK2(JH1domain)): 92% | remaining binding at 1 µM (RET): 92% | remaining binding at 1 µM [1]: 100% | remaining binding at 1 µM (ULK2): 93% | remaining binding at 1 µM (PIM2): 89% | remaining binding at 1 µM (BRAF(V600E)): 58% | remaining binding at 1 µM (TGFBR1 (ALK5)): 96% | remaining binding at 1 µM (BTK): 99% | remaining binding at 1 µM (ABL1(T315I)EP): 100% | remaining binding at 1 µM (MINK): 51% | remaining binding at 1 µM (AURKB): 97% | remaining binding at 1 µM (MEK1): 89% | remaining binding at 1 µM (KIT(D816H)): 100%
